Test results as given in the Kinase Knowledgebase extract (Sharma et al. 2016).

molecular target: ROCK2 (human) (UniProt O75116); assay: Assessment of ROCK2 Kinase Activity
Sequence (O75116 whole entry, looked up): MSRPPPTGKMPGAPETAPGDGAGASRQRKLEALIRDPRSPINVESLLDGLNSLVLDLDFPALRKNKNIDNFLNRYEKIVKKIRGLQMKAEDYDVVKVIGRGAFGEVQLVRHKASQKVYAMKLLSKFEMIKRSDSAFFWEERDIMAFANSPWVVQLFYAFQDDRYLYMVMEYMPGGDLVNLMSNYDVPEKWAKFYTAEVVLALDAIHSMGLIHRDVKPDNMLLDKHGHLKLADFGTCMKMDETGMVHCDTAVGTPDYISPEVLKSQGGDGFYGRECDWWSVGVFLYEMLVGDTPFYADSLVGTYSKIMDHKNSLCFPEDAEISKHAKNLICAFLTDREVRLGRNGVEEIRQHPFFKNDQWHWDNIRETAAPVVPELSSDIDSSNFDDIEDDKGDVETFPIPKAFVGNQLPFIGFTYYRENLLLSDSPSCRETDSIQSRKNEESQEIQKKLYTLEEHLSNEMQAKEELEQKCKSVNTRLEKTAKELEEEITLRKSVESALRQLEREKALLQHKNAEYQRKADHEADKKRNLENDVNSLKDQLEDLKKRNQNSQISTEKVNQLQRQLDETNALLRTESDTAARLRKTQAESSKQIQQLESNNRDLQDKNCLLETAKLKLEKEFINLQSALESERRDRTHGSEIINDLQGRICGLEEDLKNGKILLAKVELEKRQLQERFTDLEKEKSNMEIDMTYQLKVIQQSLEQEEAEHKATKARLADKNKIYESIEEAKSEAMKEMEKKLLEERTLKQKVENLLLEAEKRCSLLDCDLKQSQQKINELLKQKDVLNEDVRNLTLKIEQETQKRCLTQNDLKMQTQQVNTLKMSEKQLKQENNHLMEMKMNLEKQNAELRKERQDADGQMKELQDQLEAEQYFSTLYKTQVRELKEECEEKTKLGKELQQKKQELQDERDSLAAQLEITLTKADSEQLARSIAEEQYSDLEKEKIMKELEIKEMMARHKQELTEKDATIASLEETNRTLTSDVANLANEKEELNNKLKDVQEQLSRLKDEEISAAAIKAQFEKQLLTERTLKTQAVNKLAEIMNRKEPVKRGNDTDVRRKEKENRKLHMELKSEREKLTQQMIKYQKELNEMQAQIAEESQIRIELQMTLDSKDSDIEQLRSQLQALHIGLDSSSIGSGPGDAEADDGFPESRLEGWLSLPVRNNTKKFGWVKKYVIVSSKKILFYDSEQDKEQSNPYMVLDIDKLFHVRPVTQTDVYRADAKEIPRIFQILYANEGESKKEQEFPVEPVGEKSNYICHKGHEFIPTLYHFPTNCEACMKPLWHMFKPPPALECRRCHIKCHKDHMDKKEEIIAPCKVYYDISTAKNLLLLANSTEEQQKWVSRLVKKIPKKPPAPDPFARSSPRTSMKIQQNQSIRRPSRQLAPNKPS

Row | IC50 [nM] | SMILES
1 | ≤ 1000 | N[C@H]1CC[C@@H](Oc2ccc3cnccc3c2Br)CC1
2 | ≤ 1000 | N[C@H]1CC[C@@H](Oc2ccc3cnccc3c2-c2ccsc2)CC1
3 | ≤ 1000 | N[C@H]1CC[C@H](Oc2c(Cl)cc3cnccc3c2Cl)CC1
4 | ≤ 1000 | CCc1cncc2ccc(O[C@H]3CC[C@@H](N)CC3)cc12
5 | ≤ 1000 | CN(C)C=NS(=O)(=O)c1cc(CN[C@H]2CC[C@@H](Oc3ccc4cnccc4c3Cl)CC2)ccc1Cl
6 | ≤ 1000 | c1cncc(CN[C@H]2CC[C@@H](Oc3ccc4cnccc4c3)CC2)c1
7 | ≤ 1000 | CC(C)N[C@H]1CC[C@@H](Oc2ccc3cnccc3c2)CC1
8 | ≤ 1000 | CC(=O)Nc1ccc(CN[C@H]2CC[C@@H](Oc3ccc4cnccc4c3)CC2)cc1
9 | ≤ 1000 | N[C@H]1CC[C@@H](Oc2ccc3cnccc3c2Cl)CC1
10 | ≤ 1000 | N[C@H]1CC[C@@H](Oc2ccc3cncc(Cl)c3c2)CC1
11 | ≤ 1000 | Clc1c(OC2CCC(NC3CCCCC3)CC2)ccc2cnccc12 (stereo not given)
12 | ≤ 1000 | CC1(c2ccc(CNC3CCC(Oc4ccc5cnccc5c4)CC3)cc2)NC(=O)NC1=O (stereo not given)
13 | ≤ 1000 | C=Cc1c(O[C@H]2CC[C@@H](N)CC2)ccc2cnccc12
14 | ≤ 1000 | COc1cc(Nc2cc3cc(O[C@H]4CC[C@@H](N)CC4)ccc3cn2)cc(OC)c1OC
15 | ≤ 1000 | c1cc2cc(O[C@H]3CC[C@@H](NC4CC4)CC3)ccc2cn1
